| Structure (SMILES) | melting point [°C] |
| --- | --- |
| Nc1ccc(-n2cc(C(=O)O)c(=O)c3cc(F)c(N/N=C/c4ccccc4)cc32)cc1 [Compound 7, 1-(4-aminophenyl)-7-(2-benzylidenehydrazinyl)-6-fluoro-4-oxo-1,4-dihydroquinoline-3-carboxylic acid] | 314 to 316 |
| COc1ccc(/C=N/Nc2cc3c(cc2F)c(=O)c(C(=O)O)cn3-c2ccc(N)cc2)cc1 [Compound 9, 1-(4-aminophenyl)-6-fluoro-7-(2-(4-methoxybenzylidene)hydrazinyl)-4-oxo-1,4-dihydroquinoline-3-carboxylic acid] | 307 to 309 |

The next lines start with the values.

| melting point [°C] | Structure (SMILES) |
| --- | --- |
| 308 to 310 | Nc1ccc(-n2cc(C(=O)O)c(=O)c3cc(F)c(N/N=C/c4ccc(F)cc4)cc32)cc1 [Compound 8, 1-(4-aminophenyl)-6-fluoro-7-[2-(4-fluorobenzylidene)hydrazinyl]-4-oxo-1,4-dihydroquinoline-3-carboxylic acid] |
| 321 to 322 | COc1ccc(/C=N/Nc2cc3c(cc2F)c(=O)c(C(=O)O)cn3-c2ccc(N)cc2F)cc1 [Compound 10, 1-(4-amino-2-fluorophenyl)-6-fluoro-7-[2-(4-methoxybenzylidene)hydrazinyl]-4-oxo-1,4-dihydroquinoline-3-carboxylic acid] |
| 176 to 178 | Nc1ccc(-n2cc(C(=O)O)c(=O)c3cc(F)c(N/N=C/c4ccncc4)cc32)c(F)c1 [Compound 11, 1-(4-amino-2-fluorophenyl)-6-fluoro-4-oxo-7-[2-(pyridin-4-ylmethylene)hydrazinyl]-1,4-dihydroquinoline-3-carboxylic acid] |
